# Laboratory results as given in patent US10647680B2, “Urea compound, preparation method therefor and medical use thereof” (Ancureall Pharmaceutical (Shanghai) Co., Ltd., priority 2016, dated 2020).
# “And” between values parts separate entries of the source, which are not always exact repeats. Equal values may be shown once.
# Experiments:
# rat plasma protein = experiment: Binding rate to plasma protein of rats (dialysis method); type: in vitro ADME
# Experimental: The binding rate of compound 77 of the present invention to plasma protein at a rat plasma concentration of 2 uM was evaluated by dialysis method.
# Procedure: The DMSO stock solution of compound 77 (10 mM) or the positive control propranolol (USP) was added to 500 uL of blank plasma. The final concentration of test substance in the plasma was 2 uM, and the final concentration of the positive control was 1 uM, in triplicate. 300 uL of prepared plasma samples was added to the plasma chamber, and 500 uL of dialysis buffer was added to the buffer chamber (phosphate buffer solution PBS contained 100 mM sodium phosphate and 150 mM sodium chloride, PH 7.2), sealed, and incubated for 4 h while shaking at 100 rpm, 37° C. After incubation, 50 uL sample was taken from the plasma chamber and buffer chamber, and 50 uL of PBS was added to plasma chamber samples, and 50 uL of blank plasma was added to the buffer chamber samples. Immediately, 3-fold methanol solution containing internal standard was added, to precipitate plasma protein. After centrifugation, the supernatant was taken for LC/MS/MS analysis. The plasma protein binding rate was calculated according to the following formula: % free state=(peak area ratio in the buffer chamber/the peak area ratio in the plasma chamber)×%, % binding state=100%−% free state.
# [1] = test system: MV4-11 cell Bab/c nude mouse tumor model; experiment: In vivo tumor growth inhibition experiment; details: for effect on body weight of nude mice: compared with the solvent control group
# Experimental: Xenotransplantation in immunodeficient mice is an effective model for testing in vivo antitumor activity of compounds in animals. Bab/c immunodeficient mice are one of the most commonly used tumor cell xenografts. […] Log-phase MV4-11 cells were collected in a 50 ml of centrifuge tube (Corning), centrifuged at 1,700 rpm for 3 minutes, and the supernatant was discarded. Cells were suspended in a 50 ml 1×RPMI 1640 serum-free medium, and centrifuged, the supernatant was discarded and resuspension was performed. The cells were counted (Countess® Automated Cell Counting Apparatus, Invitrogen), prepared into […], placed on ice, and inoculated subcutaneously with 10×10^6 (0.2 ml) to the right back of 6-8-week female Bab/c nude mice (about 20 g in weight) (purchased from Shanghai Sippr-BK Experimental Animal Co., Ltd., Animal Center of Shanghai University of Traditional Chinese Medicine, approved by Ethical Committee of Shanghai University of Traditional Chinese Medicine). When the tumor grew to a size of 100-200 mm^3, animals were randomly grouped and earmarked and weighed. The treatment group consisted of 3 to 6 nude mice in each group. Drugs were prepared into different concentrations of milky suspension with a solvent PTP solution (30% polyethylene glycol 400, 0.5% Tween-80, 2.5% propylene glycol). Animals were given by oral gavage continuously at a concentration of 0.1 ml/10 g body weight, with a dose range of 0.1-200 mg/kg (the purity of the test compound of the present invention was 99% or more, and the proportion of single impurity was not more than 0.1%). In the control group, 3 to 6 nude mice in each group were given the same volume (0.1 ml/10 g body weight) of solvent PTP solution, and the tumors were measured 3 to 4 times per week. When the average tumor volume in the control group reached 1500 mm^3, or on the 28th day of administration, the experiment ended, then the tumor was weighed and subjected to molecular pathology assay.
# The tumor volume was calculated as V=½a×b^2, where a is the length and b is the width. The relative tumor volume (RTV) was calculated based on the measured results and the formula was RTV=Vt/V0, where V0 is the measured tumor volume when administered in divided cages (i.e., do), and Vt is the tumor volume at each measurement.
# Solubility test = type: physicochemical; details: in water at 25° C.±2° C.
# In short: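 Fine powder added to water at 25° C.±2° C., shaken vigorously 30 s every 5 min for 30 min; dissolution judged by absence of visible particles. Classed by water volume per 1 g: 1-10 ml readily soluble, 10-30 soluble, 30-100 slightly, 100-1,000 sparingly, not dissolved in 10,000 ml insoluble.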
# [2] = drug dose 2.5 mg/kg, 15th day of administration
smiles,measurement,setting,value
"COCCOc1ccc2c(c1)ncn2-c1ccc(NC(=O)Nc2cc(C(C)(C)C)n[nH]2)cc1 [Compound 77, 1-(5-tert-butyl-2H-pyrazol-3-yl)-3-{4-[5-(2-methoxyl-ethoxyl)-benzimidazol-1-yl]-phenyl}-urea]",Mean Binding Rate,"rat plasma protein; Rats, concentration 2 uM",99.54%
same,Binding Rate,"rat plasma protein; Rats, concentration 2 uM, single replicates",99.46% and 99.58% and 99.60%
same,binding rate to the rat plasma protein,"rat plasma protein; dialysis, 4 h, 37° C., test substance 2 uM, positive control 1 uM",99.54%
same,Tumor Inhibition Rate (%),"[1]; Dose 2.5 mg/kg, Day 6",79.2%
same,Tumor Inhibition Rate (%),"[1]; Dose 2.5 mg/kg, Day 10",93.2%
same,Tumor Inhibition Rate (%),"[1]; Dose 2.5 mg/kg, Day 15",100%
same,Tumor Inhibition Rate (%),"[1]; Dose 2.5 mg/kg, Day 20",100%
same,tumor outcome,[1]; [2],tumor disappears completely
same,effect on body weight of nude mice,[1]; drug dose 2.5 mg/kg,no significant effect
same,Solubility,Solubility test; listed as 77 Free base,"insoluble (“nearly insoluble or insoluble” means that 1 g of the test sample could not be completely dissolved in 10,000 ml of water)"
"CC(C)(C)c1cc(NC(=O)Nc2ccc(-n3cnc4ccccc43)cc2)[nH]n1 [Compound 68, 1-(4-benzimidazol-1-yl-phenyl)-3-(5-tert-butyl-2H-pyrazol-3-yl)-urea]",Tumor Inhibition Rate (%),"[1]; Dose 2.5 mg/kg, Day 6",14.6%
same,Tumor Inhibition Rate (%),"[1]; Dose 2.5 mg/kg, Day 10",16.2%
same,Tumor Inhibition Rate (%),"[1]; Dose 2.5 mg/kg, Day 15",17.8%
same,Tumor Inhibition Rate (%),"[1]; Dose 2.5 mg/kg, Day 20",37.5%
same,Tumor Inhibition Rate (%),"[1]; Dose 2.5 mg/kg, Day 28",35.3%
same,Tumor Inhibition Rate (%),"[1]; Dose 5 mg/kg, Day 6",67.9%
same,Tumor Inhibition Rate (%),"[1]; Dose 5 mg/kg, Day 10",71.6%
same,Tumor Inhibition Rate (%),"[1]; Dose 5 mg/kg, Day 15",58.5%
same,Tumor Inhibition Rate (%),"[1]; Dose 5 mg/kg, Day 20",50.1%
same,Tumor Inhibition Rate (%),"[1]; Dose 5 mg/kg, Day 28",62.5%
same,Tumor Inhibition Rate (%),"[1]; Dose 10 mg/kg, Day 6",68.9%
same,Tumor Inhibition Rate (%),"[1]; Dose 10 mg/kg, Day 10",81.7%
same,Tumor Inhibition Rate (%),"[1]; Dose 10 mg/kg, Day 15",90.2%
same,Tumor Inhibition Rate (%),"[1]; Dose 10 mg/kg, Day 20",94.8%
same,Tumor Inhibition Rate (%),"[1]; Dose 10 mg/kg, Day 28",98.7%
same,Tumor Inhibition Rate (%),"[1]; Dose 25 mg/kg, Day 6",86.0%
same,Tumor Inhibition Rate (%),"[1]; Dose 25 mg/kg, Day 10",92.5%
same,Tumor Inhibition Rate (%),"[1]; Dose 25 mg/kg, Day 15",93.4%
same,Tumor Inhibition Rate (%),"[1]; Dose 25 mg/kg, Day 20",96.7%
same,Tumor Inhibition Rate (%),"[1]; Dose 25 mg/kg, Day 28",100.0%
same,Tumor Inhibition Rate (%),"[1]; Dose 50 mg/kg, Day 6",92.8%
same,Tumor Inhibition Rate (%),"[1]; Dose 50 mg/kg, Day 10",98.7%
same,Tumor Inhibition Rate (%),"[1]; Dose 50 mg/kg, Day 15",100.0%
same,Tumor Inhibition Rate (%),"[1]; Dose 100 mg/kg, Day 6",94.2%
same,Tumor Inhibition Rate (%),"[1]; Dose 100 mg/kg, Day 10",100.0%
same,Tumor Inhibition Rate (%),"[1]; Dose 100 mg/kg, Day 15",100.0%
same,Tumor Inhibition Rate (%),"[1]; Dose 200 mg/kg, Day 6",98.9%
same,Tumor Inhibition Rate (%),"[1]; Dose 200 mg/kg, Day 10",100.0%
same,Tumor Inhibition Rate (%),"[1]; Dose 200 mg/kg, Day 15",100.0%
same,effect on body weight of nude mice,[1]; dose ≤25 mg/kg,no significant effect
same,inhibition rate of tumor growth,"[1]; dose ≥25 mg/kg, oral gavage, 6th day after administration",more than 80%
same,tumor outcome,"[1]; dose ≥25 mg/kg, oral gavage, 28th day",tumor disappears completely
"COc1ccc2c(c1)ncn2-c1ccc(NC(=O)Nc2cc(C(C)(C)C)n[nH]2)cc1 [Compound 71, 1-(5-tert-butyl-2H-pyrazol-3-yl)-3-[4-(5-methoxyl-benzimidazol-1-yl)-phenyl]-urea]",Tumor Inhibition Rate (%),"[1]; Dose 0.5 mg/kg, Day 6",37.2%
same,Tumor Inhibition Rate (%),"[1]; Dose 0.5 mg/kg, Day 10",34.5%
same,Tumor Inhibition Rate (%),"[1]; Dose 0.5 mg/kg, Day 15",32.6%
same,Tumor Inhibition Rate (%),"[1]; Dose 0.5 mg/kg, Day 20",36.9%
same,Tumor Inhibition Rate (%),"[1]; Dose 0.5 mg/kg, Day 28",37.3%
same,Tumor Inhibition Rate (%),"[1]; Dose 1 mg/kg, Day 6",62.2%
same,Tumor Inhibition Rate (%),"[1]; Dose 1 mg/kg, Day 10",64.5%
same,Tumor Inhibition Rate (%),"[1]; Dose 1 mg/kg, Day 15",69.6%
same,Tumor Inhibition Rate (%),"[1]; Dose 1 mg/kg, Day 20",65.4%
same,Tumor Inhibition Rate (%),"[1]; Dose 1 mg/kg, Day 28",66.6%
same,Tumor Inhibition Rate (%),"[1]; Dose 2.5 mg/kg, Day 6",63.7%
same,Tumor Inhibition Rate (%),"[1]; Dose 2.5 mg/kg, Day 10",76.8%
same,Tumor Inhibition Rate (%),"[1]; Dose 2.5 mg/kg, Day 15",77.9%
same,Tumor Inhibition Rate (%),"[1]; Dose 2.5 mg/kg, Day 20",80.5%
same,Tumor Inhibition Rate (%),"[1]; Dose 2.5 mg/kg, Day 28",83.8%
same,Tumor Inhibition Rate (%),"[1]; Dose 5 mg/kg, Day 6",84.5%
same,Tumor Inhibition Rate (%),"[1]; Dose 5 mg/kg, Day 10",94.3%
same,Tumor Inhibition Rate (%),"[1]; Dose 5 mg/kg, Day 15",98.8%
same,Tumor Inhibition Rate (%),"[1]; Dose 5 mg/kg, Day 20",100.0%
same,Tumor Inhibition Rate (%),"[1]; Dose 5 mg/kg, Day 28",100%
same,Tumor Inhibition Rate (%),"[1]; Dose 10 mg/kg, Day 6",87.2%
same,Tumor Inhibition Rate (%),"[1]; Dose 10 mg/kg, Day 10",96.4%
same,Tumor Inhibition Rate (%),"[1]; Dose 10 mg/kg, Day 15",99.8%
same,Tumor Inhibition Rate (%),"[1]; Dose 10 mg/kg, Day 20",100%
same,Tumor Inhibition Rate (%),"[1]; Dose 10 mg/kg, Day 28",100%
same,Tumor Inhibition Rate (%),"[1]; Dose 25 mg/kg, Day 6",90.0%
same,Tumor Inhibition Rate (%),"[1]; Dose 25 mg/kg, Day 10",98.0%
same,Tumor Inhibition Rate (%),"[1]; Dose 25 mg/kg, Day 15",100.0%
same,Tumor Inhibition Rate (%),"[1]; Dose 25 mg/kg, Day 20",100.0%
same,Tumor Inhibition Rate (%),"[1]; Dose 25 mg/kg, Day 28",100%
same,Tumor Inhibition Rate (%),"[1]; Dose 50 mg/kg, Day 6",91.6%
same,Tumor Inhibition Rate (%),"[1]; Dose 50 mg/kg, Day 10",99.0%
same,Tumor Inhibition Rate (%),"[1]; Dose 50 mg/kg, Day 15",100.0%
same,Tumor Inhibition Rate (%),"[1]; Dose 200 mg/kg, Day 6",93.1%
same,Tumor Inhibition Rate (%),"[1]; Dose 200 mg/kg, Day 10",100.0%
same,Tumor Inhibition Rate (%),"[1]; Dose 200 mg/kg, Day 15",100.0%
same,tumor growth inhibitory activity compared with compound 68,[1]; MV4-11 xenograft,stronger tumor growth inhibitory activity
same,tumor growth inhibitory activity,"[1]; dose of 1 to 2.5 mg/kg, oral gavage",obvious tumor growth inhibitory activity
same,effect on body weight of nude mice,[1]; dose ≤25 mg/kg,no significant effect
same,Solubility,Solubility test; listed as 71 Free base,"insoluble (“nearly insoluble or insoluble” means that 1 g of the test sample could not be completely dissolved in 10,000 ml of water)"
"CC(C)(C)c1cc(NC(=O)Nc2ccc(-n3cnc4cc(OCCN5CCOCC5)ccc43)cc2)no1 [Compound 16, 1-(5-tert-butyl-isoxazol-3-yl)-3-{4-[5-(2-morpholin-4-yl-ethoxyl)-benzimidazol-1-yl]-phenyl}-urea]",Tumor Inhibition Rate (%),"[1]; Dose 2.5 mg/kg, Day 6",82.4%
same,Tumor Inhibition Rate (%),"[1]; Dose 2.5 mg/kg, Day 10",96.8%
same,Tumor Inhibition Rate (%),"[1]; Dose 2.5 mg/kg, Day 15",100%
same,Tumor Inhibition Rate (%),"[1]; Dose 2.5 mg/kg, Day 20",100%
same,tumor outcome,[1]; [2],tumor disappears completely
same,effect on body weight of nude mice,[1]; drug dose 2.5 mg/kg,no significant effect
same,Solubility,Solubility test; listed as 16 Free base,"insoluble (“nearly insoluble or insoluble” means that 1 g of the test sample could not be completely dissolved in 10,000 ml of water)"
